In ChEMBL document CHEMBL5653615 (J Biol Chem, 2013) one finds inhibition data, which are given here for 4 molecules.

Experiment [1] addresses T1, Protein kinase C epsilon type (Homo sapiens) (UniProt Q02156).
T1 sequence (whole entry): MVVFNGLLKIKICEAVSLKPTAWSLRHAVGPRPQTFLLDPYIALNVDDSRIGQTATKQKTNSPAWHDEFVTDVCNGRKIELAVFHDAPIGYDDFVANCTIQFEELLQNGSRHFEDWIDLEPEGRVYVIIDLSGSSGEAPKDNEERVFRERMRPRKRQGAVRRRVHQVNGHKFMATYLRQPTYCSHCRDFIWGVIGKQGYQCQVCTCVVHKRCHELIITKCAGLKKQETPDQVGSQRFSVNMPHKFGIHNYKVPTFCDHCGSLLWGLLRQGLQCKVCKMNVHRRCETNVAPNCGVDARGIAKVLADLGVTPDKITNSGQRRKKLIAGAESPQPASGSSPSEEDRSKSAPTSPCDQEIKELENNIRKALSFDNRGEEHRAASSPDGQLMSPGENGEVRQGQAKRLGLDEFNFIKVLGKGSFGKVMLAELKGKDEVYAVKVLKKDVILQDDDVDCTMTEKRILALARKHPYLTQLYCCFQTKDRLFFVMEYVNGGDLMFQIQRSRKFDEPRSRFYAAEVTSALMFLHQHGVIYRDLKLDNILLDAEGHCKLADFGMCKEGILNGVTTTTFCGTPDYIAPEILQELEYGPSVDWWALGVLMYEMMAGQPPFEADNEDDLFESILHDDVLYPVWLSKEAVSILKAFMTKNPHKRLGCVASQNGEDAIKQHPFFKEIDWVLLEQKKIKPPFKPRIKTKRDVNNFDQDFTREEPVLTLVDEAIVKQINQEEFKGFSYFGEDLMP
In words: Inhibition of human PKCepsilon at 500 nM by HotSpot assay relative to control.

In experiment [2] the target is Mitogen-activated protein kinase 10 (Homo sapiens) (UniProt P53779). Put plainly: Inhibition of human JNK3 at 500 nM by HotSpot assay relative to control.
Sequence of Mitogen-activated protein kinase 10 (Homo sapiens) (P53779 whole entry): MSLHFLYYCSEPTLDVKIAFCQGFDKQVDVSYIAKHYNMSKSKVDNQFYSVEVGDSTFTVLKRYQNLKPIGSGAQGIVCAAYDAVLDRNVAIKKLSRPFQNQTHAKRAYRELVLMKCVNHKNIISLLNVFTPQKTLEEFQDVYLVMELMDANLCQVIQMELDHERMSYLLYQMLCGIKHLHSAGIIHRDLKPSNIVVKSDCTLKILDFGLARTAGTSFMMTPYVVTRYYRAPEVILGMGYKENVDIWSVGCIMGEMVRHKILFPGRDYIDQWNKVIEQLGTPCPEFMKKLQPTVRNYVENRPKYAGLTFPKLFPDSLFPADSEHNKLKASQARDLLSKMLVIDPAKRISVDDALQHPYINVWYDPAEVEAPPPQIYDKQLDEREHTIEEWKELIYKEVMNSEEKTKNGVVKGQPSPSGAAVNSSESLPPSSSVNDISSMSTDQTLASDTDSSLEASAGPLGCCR
The target in experiment [3] is Mitogen-activated protein kinase 9 (Homo sapiens) (UniProt P45984). In words: Inhibition of human JNK2 at 500 nM by HotSpot assay relative to control.
Sequence of Mitogen-activated protein kinase 9 (Homo sapiens) (P45984 whole entry, looked up): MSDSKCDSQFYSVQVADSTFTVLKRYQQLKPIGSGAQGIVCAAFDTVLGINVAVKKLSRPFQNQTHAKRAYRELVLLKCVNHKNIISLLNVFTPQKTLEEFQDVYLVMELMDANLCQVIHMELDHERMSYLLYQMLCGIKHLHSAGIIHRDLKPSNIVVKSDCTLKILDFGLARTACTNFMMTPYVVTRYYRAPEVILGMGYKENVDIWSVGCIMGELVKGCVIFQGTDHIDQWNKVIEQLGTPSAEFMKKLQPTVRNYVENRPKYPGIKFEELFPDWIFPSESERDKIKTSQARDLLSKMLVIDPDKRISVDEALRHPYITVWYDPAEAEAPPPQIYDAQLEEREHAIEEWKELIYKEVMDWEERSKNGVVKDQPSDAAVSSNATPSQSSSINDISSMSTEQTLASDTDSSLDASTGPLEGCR
The target of experiment [4] is T2, Serine/threonine-protein kinase DCLK2 (Homo sapiens) (UniProt Q8N568).
T2 sequence (whole entry): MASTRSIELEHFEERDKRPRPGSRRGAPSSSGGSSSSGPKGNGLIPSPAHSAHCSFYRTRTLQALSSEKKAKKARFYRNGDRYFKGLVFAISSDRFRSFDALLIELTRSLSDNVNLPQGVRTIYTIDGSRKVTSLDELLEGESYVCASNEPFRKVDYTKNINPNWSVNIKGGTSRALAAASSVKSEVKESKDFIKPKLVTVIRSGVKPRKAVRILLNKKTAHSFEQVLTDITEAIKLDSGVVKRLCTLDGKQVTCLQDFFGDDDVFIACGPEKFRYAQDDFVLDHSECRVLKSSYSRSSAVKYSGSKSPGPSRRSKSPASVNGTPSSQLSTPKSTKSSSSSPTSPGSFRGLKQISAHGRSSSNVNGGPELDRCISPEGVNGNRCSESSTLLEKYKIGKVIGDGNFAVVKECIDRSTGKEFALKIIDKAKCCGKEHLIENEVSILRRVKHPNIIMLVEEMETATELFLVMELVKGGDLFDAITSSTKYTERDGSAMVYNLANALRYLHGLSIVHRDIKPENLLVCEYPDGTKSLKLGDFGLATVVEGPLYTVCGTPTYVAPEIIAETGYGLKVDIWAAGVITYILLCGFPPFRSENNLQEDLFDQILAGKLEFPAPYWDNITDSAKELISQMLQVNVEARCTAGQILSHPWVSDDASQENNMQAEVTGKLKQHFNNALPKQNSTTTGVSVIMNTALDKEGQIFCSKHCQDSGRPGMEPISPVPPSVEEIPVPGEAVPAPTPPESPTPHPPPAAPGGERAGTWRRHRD
Put plainly: Inhibition of human DCAMKL2 at 500 nM by HotSpot assay relative to control.

Experiment [5] has as its target Receptor-interacting serine/threonine-protein kinase 2 (Homo sapiens) (UniProt O43353). In words: Inhibition of human RIPK2 at 500 nM by HotSpot assay relative to control.
For experiment [6], the target named is Serine/threonine-protein kinase 16 (Homo sapiens) (UniProt O75716). Put plainly: Inhibition of human STK16 at 500 nM by HotSpot assay relative to control.
Sequence of Serine/threonine-protein kinase 16 (Homo sapiens) (O75716 whole entry): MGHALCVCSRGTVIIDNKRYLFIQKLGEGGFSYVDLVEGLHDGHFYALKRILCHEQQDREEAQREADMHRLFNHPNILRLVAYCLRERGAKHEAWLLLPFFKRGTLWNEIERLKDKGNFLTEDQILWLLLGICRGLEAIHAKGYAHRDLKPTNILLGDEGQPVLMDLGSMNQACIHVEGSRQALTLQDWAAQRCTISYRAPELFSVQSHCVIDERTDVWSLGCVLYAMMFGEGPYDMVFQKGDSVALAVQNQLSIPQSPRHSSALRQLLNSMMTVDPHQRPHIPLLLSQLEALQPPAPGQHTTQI
The target in experiment [7] is Protein kinase C theta type (Homo sapiens) (UniProt Q04759). In words: Inhibition of human PKCtheta at 500 nM by HotSpot assay relative to control.
Sequence of Protein kinase C theta type (Homo sapiens) (Q04759 whole entry, looked up): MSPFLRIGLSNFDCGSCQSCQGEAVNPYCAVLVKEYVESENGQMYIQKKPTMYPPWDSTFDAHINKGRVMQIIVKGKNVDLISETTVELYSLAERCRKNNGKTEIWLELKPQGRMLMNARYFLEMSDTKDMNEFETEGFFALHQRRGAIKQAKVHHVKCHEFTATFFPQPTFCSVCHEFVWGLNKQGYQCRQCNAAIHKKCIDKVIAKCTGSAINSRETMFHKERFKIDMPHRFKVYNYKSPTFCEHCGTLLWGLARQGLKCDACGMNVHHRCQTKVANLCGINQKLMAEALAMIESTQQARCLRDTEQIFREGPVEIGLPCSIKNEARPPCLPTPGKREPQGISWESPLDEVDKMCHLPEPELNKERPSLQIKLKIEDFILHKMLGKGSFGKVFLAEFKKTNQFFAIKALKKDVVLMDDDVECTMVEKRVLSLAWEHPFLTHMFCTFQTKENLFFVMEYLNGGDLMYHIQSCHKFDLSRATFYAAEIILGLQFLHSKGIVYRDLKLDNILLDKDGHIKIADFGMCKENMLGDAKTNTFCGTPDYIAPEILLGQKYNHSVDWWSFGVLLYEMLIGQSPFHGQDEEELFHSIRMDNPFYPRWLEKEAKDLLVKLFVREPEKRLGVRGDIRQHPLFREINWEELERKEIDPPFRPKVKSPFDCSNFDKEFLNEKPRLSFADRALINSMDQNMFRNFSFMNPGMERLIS
The target in experiment [8] is Tyrosine-protein kinase HCK (Homo sapiens) (UniProt P08631). Put plainly: Inhibition of human HCK at 500 nM by HotSpot assay relative to control.
Sequence of Tyrosine-protein kinase HCK (Homo sapiens) (P08631 2-526 limits assumed): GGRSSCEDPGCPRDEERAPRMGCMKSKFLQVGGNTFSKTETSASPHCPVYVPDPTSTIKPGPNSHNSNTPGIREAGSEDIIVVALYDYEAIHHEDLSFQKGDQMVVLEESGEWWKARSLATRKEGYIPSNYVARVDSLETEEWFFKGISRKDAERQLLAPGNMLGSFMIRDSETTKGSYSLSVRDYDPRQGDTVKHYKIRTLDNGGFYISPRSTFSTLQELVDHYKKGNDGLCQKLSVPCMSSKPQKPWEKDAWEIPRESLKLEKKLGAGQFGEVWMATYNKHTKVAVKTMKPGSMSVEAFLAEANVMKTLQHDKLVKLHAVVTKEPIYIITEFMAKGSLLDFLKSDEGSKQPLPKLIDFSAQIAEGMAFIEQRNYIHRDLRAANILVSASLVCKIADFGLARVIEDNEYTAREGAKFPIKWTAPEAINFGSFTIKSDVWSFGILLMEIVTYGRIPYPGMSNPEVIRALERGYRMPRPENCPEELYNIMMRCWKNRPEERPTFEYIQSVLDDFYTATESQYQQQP
Experiment [9] has as its target T3, Interleukin-1 receptor-associated kinase 4 (Homo sapiens) (UniProt Q9NWZ3).
T3 sequence (whole entry): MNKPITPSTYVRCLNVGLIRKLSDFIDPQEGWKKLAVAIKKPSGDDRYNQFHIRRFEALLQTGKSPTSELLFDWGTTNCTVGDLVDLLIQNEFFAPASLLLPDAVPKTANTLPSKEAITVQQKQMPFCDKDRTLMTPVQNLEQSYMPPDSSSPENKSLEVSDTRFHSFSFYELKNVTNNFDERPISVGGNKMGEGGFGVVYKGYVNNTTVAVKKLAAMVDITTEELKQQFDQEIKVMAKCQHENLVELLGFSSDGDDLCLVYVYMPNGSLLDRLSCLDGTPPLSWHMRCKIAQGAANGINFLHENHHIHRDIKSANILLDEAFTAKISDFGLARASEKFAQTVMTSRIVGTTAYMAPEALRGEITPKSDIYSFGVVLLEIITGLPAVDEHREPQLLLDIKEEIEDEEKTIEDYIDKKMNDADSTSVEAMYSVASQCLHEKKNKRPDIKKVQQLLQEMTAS
Put plainly: Inhibition of human IRAK4 at 500 nM by HotSpot assay relative to control.

In experiment [10] the target is SRSF protein kinase 2 (Homo sapiens) (UniProt P78362). In words: Inhibition of human SRPK2 at 500 nM by HotSpot assay relative to control.
Sequence of SRSF protein kinase 2 (Homo sapiens) (P78362 whole entry, looked up): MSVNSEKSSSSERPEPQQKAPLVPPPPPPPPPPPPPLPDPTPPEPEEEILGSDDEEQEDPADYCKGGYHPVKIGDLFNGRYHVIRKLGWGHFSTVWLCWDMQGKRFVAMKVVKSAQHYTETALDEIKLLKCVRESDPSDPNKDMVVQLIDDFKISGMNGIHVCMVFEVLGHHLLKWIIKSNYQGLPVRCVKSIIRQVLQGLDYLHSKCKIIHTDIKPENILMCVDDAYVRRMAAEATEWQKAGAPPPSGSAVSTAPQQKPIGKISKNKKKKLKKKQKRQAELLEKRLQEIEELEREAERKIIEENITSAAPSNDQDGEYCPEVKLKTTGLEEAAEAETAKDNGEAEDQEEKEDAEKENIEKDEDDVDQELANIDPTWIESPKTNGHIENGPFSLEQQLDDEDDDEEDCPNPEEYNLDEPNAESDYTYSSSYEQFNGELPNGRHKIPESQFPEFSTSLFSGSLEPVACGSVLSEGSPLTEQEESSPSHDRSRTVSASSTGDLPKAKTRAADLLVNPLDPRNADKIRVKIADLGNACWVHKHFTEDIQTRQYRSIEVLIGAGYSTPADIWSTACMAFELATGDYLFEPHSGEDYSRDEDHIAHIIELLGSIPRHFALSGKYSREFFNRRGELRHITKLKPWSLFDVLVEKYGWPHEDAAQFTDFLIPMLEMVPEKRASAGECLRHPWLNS
The target in experiment [11] is Glycogen synthase kinase-3 beta (Homo sapiens) (UniProt P49841). Put plainly: Inhibition of human GSK3b at 500 nM by HotSpot assay relative to control.
Sequence of Glycogen synthase kinase-3 beta (Homo sapiens) (P49841 whole entry, looked up, canonical isoform): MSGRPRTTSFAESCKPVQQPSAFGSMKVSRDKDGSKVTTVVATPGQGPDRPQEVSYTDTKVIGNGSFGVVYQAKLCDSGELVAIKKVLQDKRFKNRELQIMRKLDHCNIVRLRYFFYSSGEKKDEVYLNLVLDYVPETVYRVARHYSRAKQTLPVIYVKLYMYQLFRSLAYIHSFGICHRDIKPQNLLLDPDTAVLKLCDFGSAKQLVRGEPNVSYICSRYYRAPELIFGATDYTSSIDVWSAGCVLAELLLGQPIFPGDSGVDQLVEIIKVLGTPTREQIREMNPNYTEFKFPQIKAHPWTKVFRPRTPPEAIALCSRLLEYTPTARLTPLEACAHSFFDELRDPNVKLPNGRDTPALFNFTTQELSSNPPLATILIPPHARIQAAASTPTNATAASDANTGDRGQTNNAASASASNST
In experiment [12] the target is Casein kinase I isoform epsilon (Homo sapiens) (UniProt P49674). In words: Inhibition of human CK1epsilon at 500 nM by HotSpot assay relative to control.
Sequence of Casein kinase I isoform epsilon (Homo sapiens) (P49674 whole entry, looked up, canonical isoform): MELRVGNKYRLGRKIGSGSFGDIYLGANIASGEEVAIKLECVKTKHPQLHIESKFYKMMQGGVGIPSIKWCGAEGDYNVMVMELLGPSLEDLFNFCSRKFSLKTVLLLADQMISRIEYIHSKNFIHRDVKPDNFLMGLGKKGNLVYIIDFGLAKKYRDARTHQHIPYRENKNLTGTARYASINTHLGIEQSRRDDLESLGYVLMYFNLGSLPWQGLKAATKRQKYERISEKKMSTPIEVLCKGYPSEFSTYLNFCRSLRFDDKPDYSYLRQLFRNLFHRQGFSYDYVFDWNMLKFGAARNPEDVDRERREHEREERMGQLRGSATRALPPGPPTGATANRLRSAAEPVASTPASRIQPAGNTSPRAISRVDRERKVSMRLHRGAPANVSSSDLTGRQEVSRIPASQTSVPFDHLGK
In experiment [13] the target is Calcium/calmodulin-dependent protein kinase type 1 (Homo sapiens) (UniProt Q14012). In words: Inhibition of human CAMK1a at 18.6 nM by HotSpot assay relative to control.
Experiment [14] has as its target Tyrosine-protein kinase JAK1 (Homo sapiens) (UniProt P23458). Put plainly: Inhibition of human JAK1 at 1.82 nM by HotSpot assay relative to control.
Experiment [15] addresses Calcium/calmodulin-dependent protein kinase type II subunit alpha (Homo sapiens) (UniProt Q9UQM7). In words: Inhibition of human CAMK2a at 1.82 nM by HotSpot assay relative to control.

Sequence of Receptor-interacting serine/threonine-protein kinase 2 (Homo sapiens) (O43353 whole entry): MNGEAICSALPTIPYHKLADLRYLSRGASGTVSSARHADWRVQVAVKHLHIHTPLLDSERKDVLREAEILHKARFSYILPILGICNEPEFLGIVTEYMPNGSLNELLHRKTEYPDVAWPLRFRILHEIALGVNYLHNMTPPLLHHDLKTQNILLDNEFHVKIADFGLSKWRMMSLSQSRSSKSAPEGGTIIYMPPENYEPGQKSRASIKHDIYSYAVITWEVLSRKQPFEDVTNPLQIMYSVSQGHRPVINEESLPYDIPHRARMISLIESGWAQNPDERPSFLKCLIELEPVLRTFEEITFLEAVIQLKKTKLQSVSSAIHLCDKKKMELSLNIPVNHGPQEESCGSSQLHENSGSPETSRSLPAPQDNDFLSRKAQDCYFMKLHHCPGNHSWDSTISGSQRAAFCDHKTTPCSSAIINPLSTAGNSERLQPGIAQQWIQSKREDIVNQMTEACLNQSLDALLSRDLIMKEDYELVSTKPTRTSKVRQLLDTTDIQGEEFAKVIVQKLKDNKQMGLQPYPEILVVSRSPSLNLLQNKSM
Sequence of Calcium/calmodulin-dependent protein kinase type II subunit alpha (Homo sapiens) (Q9UQM7 whole entry): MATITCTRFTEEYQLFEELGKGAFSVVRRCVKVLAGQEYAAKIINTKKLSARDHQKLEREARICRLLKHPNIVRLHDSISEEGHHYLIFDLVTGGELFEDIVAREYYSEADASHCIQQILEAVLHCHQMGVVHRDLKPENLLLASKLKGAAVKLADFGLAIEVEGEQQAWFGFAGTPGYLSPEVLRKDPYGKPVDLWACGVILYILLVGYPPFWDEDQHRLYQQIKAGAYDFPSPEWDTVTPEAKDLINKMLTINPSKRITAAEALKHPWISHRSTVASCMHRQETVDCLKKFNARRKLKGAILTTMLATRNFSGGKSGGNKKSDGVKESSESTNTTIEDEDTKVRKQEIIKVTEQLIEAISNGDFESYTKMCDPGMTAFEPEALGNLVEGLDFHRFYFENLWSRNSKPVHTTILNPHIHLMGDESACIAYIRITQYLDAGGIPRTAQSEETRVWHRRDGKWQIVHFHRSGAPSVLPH

As to `Oc1n[nH]c2nnc(-c3c(-c4ccccc4)nn4ccccc34)cc12`, the inhibition is 3.42% in experiment [1]; 5.98% in experiment [2]; 11.7% in experiment [3]; 0.11% in experiment [4]; 11.9% in experiment [5]; 1.39% in [6]. The inhibition in [7] is 8.59%; in experiment [8], 7.7%; in [9], -3.11%; in [10] it was 0.47%; in experiment [11], -9.9%; in experiment [12], 0.54%.
Regarding `C[C@]1(O)C[C@@H](c2nc(-c3ccc4ccc(-c5ccccc5)nc4c3)c3c(N)nccn32)C1`, in experiment [13], the inhibition worked out at 9.19%.
Turning to `Nc1n[nH]c2nnc(-c3c(-c4ccccc4)nn4ccccc34)cc12`, the inhibition in experiment [1] was 27.3%; in experiment [2], -3.19%; in experiment [3], 51.6%; in experiment [4], -0.33%; in experiment [5] it was 13%; in [6], -7.84%. The inhibition is 20.1% in experiment [7]; 8.92% in experiment [8]; -5.42% in experiment [9]; 26.2% in [10]; -9.06% in experiment [11]; 19.1% in experiment [12].
As for `C[C@@]1(C(=O)Nc2ccc(F)nc2)CCCN1c1nc(Nc2cc(C3CC3)n[nH]2)c2cccn2n1`, the inhibition was -5.65% in experiment [14] and -2.76% in [15].

Broadly, the inhibition is the change of the read-out against control, counted positive when it falls.
